Assay results published in US20210388031A1, “Designer Peptide Opsonins” (New Jersey Institute of Technology, priority 2020, published 2021).
Like-named read-outs stand apart in the source and are kept apart here.

Assays:
[1] = Solubility of nanofibers in aqueous phosphate buffer; assay type: physicochemical
Procedure: (i) SAPs are customizable solid phase peptide synthesized peptides. They are based on the canonical sequence K-(SL)6-K [SEQ.1] which aggregates via β-sheet interactions of the (SL) midblock to form fibers with polar lysine termini.^47,51 These 10-15 nm wide, 1-2 nm tall, 100s nm-μm long nanofibers are highly soluble >40 mg/mL (4w %) in aqueous phosphate buffer, FIG. 2 A-D.^57,58,60
Formed are fibers with polar glutamic acid termini. These ˜10 nm wide×1-2 nm tall, 100s nm-μm long nanofibers are highly soluble >40 mg/mL (4w %) in aqueous phosphate buffer, FIG. 3. […] Given straightforward SPPS synthesis with excellent (>90% crude purity), scalable manufacture (worldwide) of this peptide is assured.

[2] = tested on: SARS-CoV-2
[3] = tested on: A549 cell; assay: A549 cell cytocompatibility; conditions: data not shown
[4] = rats IV
[5] = 37° C., LC/MS, FIG. 6D
[6] = Anti-drug antibodies; conditions: in vivo

## CC(=O)N[C@@H](CCCCN)C(=O)N[C@@H](CO)C(=O)N[C@@H](CC(C)C)C(=O)N[C@@H](CO)C(=O)N[C@@H](CC(C)C)C(=O)N[C@@H](CO)C(=O)N[C@@H](CC(C)C)C(=O)N[C@@H](CO)C(=O)N[C@@H](CC(C)C)C(=O)N[C@@H](CO)C(=O)N[C@@H](CC(C)C)C(=O)N[C@@H](CO)C(=O)N[C@@H](CC(C)C)C(=O)N[C@@H](CCCCN)C(N)=O [K-(SL)6-K]
[1]
  solubility: > 40 mg/mL

## QYKTYIDKNNHYAEDERYK [SBP3]
[2]; binding domain alone, binds to the Spike protein
  IC50: μM-nM

## Ac-ESLSLSLSLSLSLEGSALEEGQLKTFLDKFMHELEDLLYQLAL-NH2 (N-terminus and C-terminus assumed) [ESBP2]
[3]
  A549 cell cytocompatibility: excellent
rats, 1% blood volume of 1 mM peptides, FIG. 6B
  adverse reaction, 10 day repeat dosing: no adverse reaction
[2]
  IC50: < 0.01 µM
  Plaque Reduction (10 μM, n-4): 74%
[4]; FIG. 6C
  IV clearance: approximately 4 hrs
[5]
  stability of drug formulation: over 10 days

## Ac-ESLSLSLSLSLSLEGQYKTYIDKNNHYAEDERYK-NH2 (N-terminus and C-terminus assumed) [ESBP3]
Daily >1 mM @ 1% blood volume (~200 μL) in rats IV
  safety profile: excellent safety profile
[2]
  IC50 improved compared to SBP3 alone: orders of magnitude improved
[4]
  clearance: 4 to 6 h
[6]
  anti-drug antibodies (ADA): none seen to date

## SALEEQLKTFLDKFMHELEDLLYQLAL [SBP2]
[2]
  Plaque Reduction (10 μM, n-4): 88%
